{
  "source": "patent US6421455B1",
  "about": "“Method for detecting cancer on skin of humans and mammals and arrangement for performing the method” (Medeikonos AB, priority 1996, dated 2002)",
  "key": {"[1]": {"assay": "Solubility of ALA in water", "type": "physicochemical", "conditions": "ALA in the form of powder", "experimental": "(§1) The method according to the invention is carried out in the way that first a water-in-oil emulsion or an oil-in-water emulsion is prepared form a compound called delta amino levulinic acid (ALA) having an ALA concentration of 5-25%. […] This agent which has the formula I is normally produced in the body in the […] and is a building stone for the haemoglobin. [drawing 1]"}, "[2]": {"test_system": "skin cancer (tumours) on skin", "assay": "Imaging fluorescence spectroscopy of skin after topical ALA application", "type": "in vivo, human", "conditions": "exciting light about 0,5 mW/cm^2, exposing time 2 s", "experimental": "as §1"}},
  "data": [
    {"smiles": "NCC(=O)CCC(=O)O", "note": "[ALA, delta amino levulinic acid]", "values": [
      {"measurement": "solubility in water", "setting": "[1]", "value": "easily solved in water"},
      {"measurement": "average fluorescence level within area B (ALA-treated skin without detected tumours) relative to area A (untreated skin, skin auto fluorescence)", "setting": "[2]; FIG. 1, back of a person", "value": "1,9 ×"},
      {"measurement": "fluorescence intensity of white-contoured areas (tumours, areas 1-4) relative to skin auto fluorescence", "setting": "[2]; FIG. 1, back of a person", "value": "2,75 ×"},
      {"measurement": "average fluorescence level in area B (ALA-treated skin without detected tumours) relative to area A (untreated skin, skin auto fluorescence)", "setting": "[2]; FIG. 2, breast of a person", "value": "2,0 ×"},
      {"measurement": "fluorescence intensity of white-contoured areas (tumour, area 7) relative to skin auto fluorescence", "setting": "[2]; FIG. 2, breast of a person", "value": "> 2,75 ×"}
    ]}
  ]
}
